Source: PubChem BioAssay AID1918939 (Molecular Pharmacology Branch, DTP, NCI, 2023)
pIC50: −log10 of the molar value. Where “and” joins values, the source holds several entries; their conditions need not be identical. Equal values may be shown once.

Test system: 653999-131-R-J2-PDC complex spheroid viability
Assay: Anticancer human tumor 653999-131-R-J2-PDC patient-derived lung adenocarcinoma cell line growth inhibition
Settings: for viability, T/C: stronger effect = lower value
Description: Multicellular complex tumor spheroid response to LSD1 Inhibitor Iadademstat in combination with a variety of drugs and investigational agents in selected tumor cell lines
The current study was undertaken to assess response to LSD1 inhibitors in combination with standard-of-care drugs and investigational agents in solid tumor complex spheroid models as well as in the K-562 leukemia. Complex spheroids include a stromal component modeled by human endothelial cells (HUVEC) and fibroblasts modeled by human mesenchymal stem cells (MSCs). The concentration ranges selected for each drug and investigational agent were based upon clinically achievable concentrations if the clinical Cmax of the agent was known.
Compounds. The drugs and investigational agents used in this study are listed on Table 1. All of the agents used, including staurosporine (NSC755774) and gemcitabine (NSC613327), were obtained from the Developmental Therapeutics Program, NCI. FDA-approved anticancer drugs are available from the NCI at http://dtp.nci.nih.gov/branches/dscb/oncology_drugset_explanation.html. Drugs and investigational agents were >95% pure by proton nuclear magnetic resonance (NMR) and liquid chromatography/mass spectrometry (LC/MS). Stock solutions were prepared at 400x in DMSO, stored at -70 degrees C, and diluted in fresh medium prior to their use. The final concentration of DMSO in cell culture wells never exceeded 0.25% (v/v). The FDA-approved anticancer drug set is available from the Developmental Therapeutics Program at https://dtp.cancer.gov/organization/dscb/obtaining/available_plates.htm. All drugs and investigational agents were tested over a range starting from a high concentration at or near the clinical Cmax and decreasing in half-log increments. If the clinical Cmax for an agent had not been determined, the highest concentration tested was 10 microM.
Cell Lines. The patient-derived cancer cell (PDC) lines: 292921-168-R-J2-PDC, K24384-001-R-PDC, and 521955-158-R2-J5-PDC pancreatic carcinomas, 556581-035-R-J1 ovarian carcinoma, 324938-238-R-J1-PDC, 855422-203-R-J1-PDC and 883617-216-R-J1-PDC urothelial bladder carcinomas, 743489-274-T-PDC renal cell carcinoma, 138582-R-J1 Merkel cell tumor, K60290-347-R-J1 and K57222-313-R-J1-PDC glioblastomas, 653999-131-R-J2-PDC, LG0703-F948-PDC, and 349418-098-R-PDC non-small cell lung carcinomas, 885512-296-R-J2-PDC, 171881-019-R-J1-PDC breast carcinomas and 186277-243-T-J2-PDC and 233499-124-R-J2-PDC colon carcinomas were obtained from the NCI Patient-Derived Models Repository (PDMR, https://pdmr.cancer.gov). The established cell lines NCI/ADR-RES (RRID:CVCL_14520 and OVCAR-5 (RRID:CVCL_1628) ovarian carcinomas, 786-O (RRID:CVCL_1051) and A498 (RRID:CVCL_A498) renal cell carcinoma, NCI-H211 (ATCC, cat. CRL-5824; RRID:CVCL_1529), NCI-H196 (ATCC, cat. CRL-5823, RRID:CVCL_1509), SW 1271 (ATCC, cat. CRL-2177, RRID:CVCL_1716) and NCI-H1876 (ATCC, cat. CRL-5902, RRID:CVCL_1503) small cell lung carcinomas, MDA-MB-231 (RRID:CVCL_0062) and MDA-MB-468 (RRID:CVCL_0419)breast carcinomas (10-12). Pooled donor human umbilical vein endothelial cells (HUVEC, Lonza, cat. CC-2519) and human mesenchymal stem cells (hMSC, Lonza, cat. PT-2501) were purchased from Lonza (Walkersville, MD).
Cell Culture. All cells were maintained in an incubator at 37 degrees C and 5% CO2 with 95% humidity. The PDC lines were cultured according to standard operating procedures established by the NCI PDMR (https://pdmr.cancer.gov). Briefly all PDCs were thawed and cultured in Matrigel-coated flasks prepared with a working solution of 1X Ham's F-12 nutrient mix, without supplementation (Invitrogen, Waltham, MA, cat. 11765054), 100 U/mL penicillin-streptomycin (Invitrogen, cat. 15140122), and 2.5% Matrigel (Corning Inc., Corning, NY, cat. 354248) for the first three passages. […]

[1] = curve of first compound, second compound 0.1 µM
[2] = curve of first compound, second compound 0.316 µM
[3] = curve of first compound, second compound 1 µM
[4] = curve of first compound, second compound 3.16 µM
[5] = curve of first compound, second compound 10 µM
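Note: spheroids exposed to agents for seven days before readout.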

## Nc1ncn(C2CC(O)C(CO)O2)c(=O)n1 (stereo not given) + NC1CC1c1ccc(-c2cccc(O)c2)cc1
[1]
  pIC50: < 6.00
[2]
  pIC50: < 6.00
[3]
  pIC50: < 6.00
[4]
  pIC50: < 6.00
[5]
  pIC50: < 6.00
Second compound 0.1 µM, first compound 0.00316 µM
  viability, T/C: 103%
Second compound 0.1 µM, first compound 0.01 µM
  viability, T/C: 101%
Second compound 0.1 µM, first compound 0.0316 µM
  viability, T/C: 96.3%
Second compound 0.1 µM, first compound 0.1 µM
  viability, T/C: 79.4%
Second compound 0.1 µM, first compound 0.316 µM
  viability, T/C: 83.6%
Second compound 0.1 µM, first compound 1 µM
  viability, T/C: 73.5%
Second compound 0.316 µM, first compound 0.00316 µM
  viability, T/C: 87.8%
Second compound 0.316 µM, first compound 0.01 µM
  viability, T/C: 113%
Second compound 0.316 µM, first compound 0.0316 µM
  viability, T/C: 87.8%
Second compound 0.316 µM, first compound 0.1 µM
  viability, T/C: 87.5%
Second compound 0.316 µM, first compound 0.316 µM
  viability, T/C: 85.4%
Second compound 0.316 µM, first compound 1 µM
  viability, T/C: 79.9%
Second compound 1 µM, first compound 0.00316 µM
  viability, T/C: 91.2%
Second compound 1 µM, first compound 0.01 µM
  viability, T/C: 92%
Second compound 1 µM, first compound 0.0316 µM
  viability, T/C: 95.5%
Second compound 1 µM, first compound 0.1 µM
  viability, T/C: 81.3%
Second compound 1 µM, first compound 0.316 µM
  viability, T/C: 86.5%
Second compound 1 µM, first compound 1 µM
  viability, T/C: 67.5%
Second compound 3.16 µM, first compound 0.00316 µM
  viability, T/C: 94%
Second compound 3.16 µM, first compound 0.01 µM
  viability, T/C: 112%
Second compound 3.16 µM, first compound 0.0316 µM
  viability, T/C: 93.7%
Second compound 3.16 µM, first compound 0.1 µM
  viability, T/C: 101%
Second compound 3.16 µM, first compound 0.316 µM
  viability, T/C: 93.8%
Second compound 3.16 µM, first compound 1 µM
  viability, T/C: 90%
Second compound 10 µM, first compound 0.00316 µM
  viability, T/C: 94.3%
Second compound 10 µM, first compound 0.01 µM
  viability, T/C: 103%
Second compound 10 µM, first compound 0.0316 µM
  viability, T/C: 90.7%
Second compound 10 µM, first compound 0.1 µM
  viability, T/C: 93.5%
Second compound 10 µM, first compound 0.316 µM
  viability, T/C: 84.8%
Second compound 10 µM, first compound 1 µM
  viability, T/C: 95.6%

## Nc1ccn(C2OC(CO)C(O)C2(F)F)c(=O)n1 (stereo not given)
Compound 0.000949 µM
  viability, T/C: 64.7% and 96.4%
Compound 0.003 µM
  viability, T/C: 56.8% and 94.6%
Compound 0.00949 µM
  viability, T/C: 49% and 73.2%
Compound 0.03 µM
  viability, T/C: 38.4% and 57.3%
Compound 0.0949 µM
  viability, T/C: 37.5% and 50.2%
Compound 0.3 µM
  viability, T/C: 34.7% and 50.1%

## Nc1ncn(C2CC(O)C(CO)S2)c(=O)n1 (stereo not given) + NC1CCC(NC2CC2c2ccccc2)CC1
[1]
  pIC50: < 6.52
[2]
  pIC50: < 6.52
[3]
  pIC50: < 6.52
[4]
  pIC50: < 6.52
[5]
  pIC50: < 6.52
Second compound 0.1 µM, first compound 0.000949 µM
  viability, T/C: 83.8%
Second compound 0.1 µM, first compound 0.003 µM
  viability, T/C: 109%
Second compound 0.1 µM, first compound 0.00949 µM
  viability, T/C: 90.8%
Second compound 0.1 µM, first compound 0.03 µM
  viability, T/C: 74.8%
Second compound 0.1 µM, first compound 0.0949 µM
  viability, T/C: 70.4%
Second compound 0.1 µM, first compound 0.3 µM
  viability, T/C: 50.6%
Second compound 0.316 µM, first compound 0.000949 µM
  viability, T/C: 86.6%
Second compound 0.316 µM, first compound 0.003 µM
  viability, T/C: 81.6%
Second compound 0.316 µM, first compound 0.00949 µM
  viability, T/C: 87.5%
Second compound 0.316 µM, first compound 0.03 µM
  viability, T/C: 74.5%
Second compound 0.316 µM, first compound 0.0949 µM
  viability, T/C: 58%
Second compound 0.316 µM, first compound 0.3 µM
  viability, T/C: 51.9%
Second compound 1 µM, first compound 0.000949 µM
  viability, T/C: 89.5%
Second compound 1 µM, first compound 0.003 µM
  viability, T/C: 94%
Second compound 1 µM, first compound 0.00949 µM
  viability, T/C: 86.3%
Second compound 1 µM, first compound 0.03 µM
  viability, T/C: 78.7%
Second compound 1 µM, first compound 0.0949 µM
  viability, T/C: 67.8%
Second compound 1 µM, first compound 0.3 µM
  viability, T/C: 55.5%
Second compound 3.16 µM, first compound 0.000949 µM
  viability, T/C: 99%
Second compound 3.16 µM, first compound 0.003 µM
  viability, T/C: 92%
Second compound 3.16 µM, first compound 0.00949 µM
  viability, T/C: 85.8%
Second compound 3.16 µM, first compound 0.03 µM
  viability, T/C: 81.3%
Second compound 3.16 µM, first compound 0.0949 µM
  viability, T/C: 68.2%
Second compound 3.16 µM, first compound 0.3 µM
  viability, T/C: 54.7%
Second compound 10 µM, first compound 0.000949 µM
  viability, T/C: 88.9%
Second compound 10 µM, first compound 0.003 µM
  viability, T/C: 112%
Second compound 10 µM, first compound 0.00949 µM
  viability, T/C: 88.8%
Second compound 10 µM, first compound 0.03 µM
  viability, T/C: 84.7%
Second compound 10 µM, first compound 0.0949 µM
  viability, T/C: 63.7%
Second compound 10 µM, first compound 0.3 µM
  viability, T/C: 58.6%

## CC(C)c1c(-c2ccccc2)nc2c(C#N)c[nH]n2c1=O
Compound 0.0316 µM
  viability, T/C: 98.4% and 88.9%
Compound 0.1 µM
  viability, T/C: 107% and 94.6%
Compound 0.316 µM
  viability, T/C: 108% and 93.6%
Compound 1 µM
  viability, T/C: 116% and 98.2%
Compound 3.16 µM
  viability, T/C: 109% and 88.9%
Compound 10 µM
  viability, T/C: 94.7% and 88.9%
Curve of compound
  pIC50: < 5.00

## CC(C)CC(NC(=O)C(Cc1ccccc1)NC(=O)c1cnccn1)B(O)O (stereo not given)
Compound 0.000316 µM
  viability, T/C: 114% and 119%
Compound 0.001 µM
  viability, T/C: 103% and 38.1%
Compound 0.00316 µM
  viability, T/C: 23.9% and 13.2%
Compound 0.01 µM
  viability, T/C: 1.83% and 5.29%
Compound 0.0316 µM
  viability, T/C: 2.67% and 1.3%
Compound 0.1 µM
  viability, T/C: 0.76% and 1.16%
Curve of compound
  pIC50: 8.66 and 9.07
